# Test results reported in patent publication US11707537B2, “Conformational restriction of cyanine fluorophores in far-red and near-IR range” (The United States of America, as represented by the …, priority 2017, dated 2023).
# Marks after values point to notes of the source that are not given here.
# Columns and labels:
# Type in all cases: physicochemical
# [1] = Temperature dependence of fluorescence emission; settings: in ethanol
# Text: FIG. 7 is a graph showing the temperature dependence of fluorescence emission from compounds 4 (squares) and 10 (circles) in ethanol.
# This is also due to photoisomerization in compound 10, which becomes more efficient at higher temperatures. The substantially longer lifetimes of compounds 4 and 7 relative to the unrestrained cyanine 10 point to significant potential for fluorescence lifetime imaging microscopy (FLIM).
# [2] = Fluorescence emission and fluorescence quantum yield
# Text: All commercially obtained reagents were used as received. 2,3,3-trimethyl indoline (S1), malonaldehyde bis(phenylimine) monohydrochloride, Grubb's 2nd generation and Hoyveda-Grubbs 2nd generation catalysts were purchased from Sigma-Aldrich (St. Louis, Mo.). Acrolein dimethyl acetal (2) was purchased from TCI America (Portland, Oreg.). 4-hydrazinylbenzoic acid (S5) was ordered from Oakwood Chemical (Estill, S.C.). 2-(2-bromoethyl)-1,3-dioxolane was purchased from Acros Organics (Geel, Belgium). NH2-PEG8-COOH was purchased from Thermo Scientific (Waltham, Mass.). Aminophalloidin tosylate was purchased from Enzo, Inc. (Farmingdale, N.Y.). Compounds S2, S4, and S8 were synthesized according to known procedures (Hanessian et al., J. Am. Chem. Soc. 2004, 126 (19), 6064-71; Hall et al., Nucleic Acids Res. 2012, 40 (14), e108; Park et al., Bioconjugate Chem. 2012, 23 (3), 350-362). Normal phase (60 Å, 20-40 m, RediSep® Rf Gold® silica or 60 Å, 35-70 m, RediSep® Rf silica) and reversed phase (100 Å, 20-40 micron particle size, RediSep® Rf Gold® Reversed-phase C18 or C18Aq) flash column chromatography was performed on a CombiFlash© Rf 200i (Teledyne Isco, Inc., Lincoln, Nebr.). Reversed-phase preparative HPLC was performed using an Agilent 1260 Infinity II LC system utilizing a SunFire Prep C18 column (100 Å, 5 m, 10×150 mm) obtained from Waters, Co (Milford, Mass.). High-resolution LC/MS analyses were conducted on a Thermo-Fisher LTQ-Orbitrap-XL hybrid mass spectrometer system with an Ion MAX API electrospray ion source in negative ion mode. Analytical LC/MS was performed using a Shimadzu LCMS-2020 Single Quadrupole utilizing a Kinetex C18 column (100 Å, 2.6 m, 2.1×50 mm) obtained from Phenomenex, Inc (Torrance, Calif.). Runs employed a gradient of 0-90% MeCN/0.1% aqueous formic acid over 4.5 min at a flow rate of 0.2 mL/min. ^1H NMR and ^13C NMR spectra were recorded on Bruker spectrometers (at 400 or 500 MHz or at 100 or 125 MHz) and are reported relative to deuterated solvent signals. Data for ^1H NMR spectra are reported as follows: chemical shift (6 ppm), multiplicity, coupling constant (Hz), and integration. Data for ^13C NMR spectra are reported in terms of chemical shift. Absorbance curves were obtained on a Shimadzu UV-2550 spectrophotometer operated by UVProbe 2.32 software. Molar absorption coefficients (F) were determined in PBS (50 mM, pH 7.4) or methanol (MeOH) using Beer's law, from plots of absorbance vs. concentration. Measurements were performed in 10 mm path length quartz cuvettes (Hellma 111-QS) that were maintained at room temperature, and reported values are averages (n≥3). Fluorescence traces were recorded on a PTI QuantaMaster steady-state spectrofluorimeter operated by FelixGX 4.2.2 software, with 4 nm excitation and emission slit widths, and a 0.1 s integration rate. […] Chem. Chem. Phys. 112009, 9850-9860). This instrument uses an integrating sphere to measure photons absorbed and emitted by a sample. […] Reported values are averages (n≥5). Data analysis and curve fitting were performed using MS Excel 2011 and GraphPad Prism 7. Light intensity measurements were performed with a Thorlabs PM200 optical power and energy meter fitted with an S120VC standard Si photodiode power sensor (200-1100 nm, 50 nW-50 mW). See JOC Standard Abbreviations and Acronyms for abbreviations (http://pubs.acs.org/paragonplus/submission/joceah/-joceah_abbreviations.pdf).
# [3] = Absorbance and molar absorption coefficient (Beer's law); settings: for shift in λmax: relative to unrestricted compound 10
# Text: All commercially obtained reagents were used as received. 2,3,3-trimethyl indoline (S1), malonaldehyde bis(phenylimine) monohydrochloride, Grubb's 2nd generation and Hoyveda-Grubbs 2nd generation catalysts were purchased from Sigma-Aldrich (St. Louis, Mo.). Acrolein dimethyl acetal (2) was purchased from TCI America (Portland, Oreg.). 4-hydrazinylbenzoic acid (S5) was ordered from Oakwood Chemical (Estill, S.C.). 2-(2-bromoethyl)-1,3-dioxolane was purchased from Acros Organics (Geel, Belgium). NH2-PEG8-COOH was purchased from Thermo Scientific (Waltham, Mass.). Aminophalloidin tosylate was purchased from Enzo, Inc. (Farmingdale, N.Y.). Compounds S2, S4, and S8 were synthesized according to known procedures (Hanessian et al., J. Am. Chem. Soc. 2004, 126 (19), 6064-71; Hall et al., Nucleic Acids Res. 2012, 40 (14), e108; Park et al., Bioconjugate Chem. 2012, 23 (3), 350-362). Normal phase (60 Å, 20-40 m, RediSep® Rf Gold® silica or 60 Å, 35-70 m, RediSep® Rf silica) and reversed phase (100 Å, 20-40 micron particle size, RediSep® Rf Gold® Reversed-phase C18 or C18Aq) flash column chromatography was performed on a CombiFlash© Rf 200i (Teledyne Isco, Inc., Lincoln, Nebr.). Reversed-phase preparative HPLC was performed using an Agilent 1260 Infinity II LC system utilizing a SunFire Prep C18 column (100 Å, 5 m, 10×150 mm) obtained from Waters, Co (Milford, Mass.). High-resolution LC/MS analyses were conducted on a Thermo-Fisher LTQ-Orbitrap-XL hybrid mass spectrometer system with an Ion MAX API electrospray ion source in negative ion mode. Analytical LC/MS was performed using a Shimadzu LCMS-2020 Single Quadrupole utilizing a Kinetex C18 column (100 Å, 2.6 m, 2.1×50 mm) obtained from Phenomenex, Inc (Torrance, Calif.). Runs employed a gradient of 0-90% MeCN/0.1% aqueous formic acid over 4.5 min at a flow rate of 0.2 mL/min. ^1H NMR and ^13C NMR spectra were recorded on Bruker spectrometers (at 400 or 500 MHz or at 100 or 125 MHz) and are reported relative to deuterated solvent signals. Data for ^1H NMR spectra are reported as follows: chemical shift (6 ppm), multiplicity, coupling constant (Hz), and integration. Data for ^13C NMR spectra are reported in terms of chemical shift. Absorbance curves were obtained on a Shimadzu UV-2550 spectrophotometer operated by UVProbe 2.32 software. Molar absorption coefficients (F) were determined in PBS (50 mM, pH 7.4) or methanol (MeOH) using Beer's law, from plots of absorbance vs. concentration. Measurements were performed in 10 mm path length quartz cuvettes (Hellma 111-QS) that were maintained at room temperature, and reported values are averages (n≥3). Fluorescence traces were recorded on a PTI QuantaMaster steady-state spectrofluorimeter operated by FelixGX 4.2.2 software, with 4 nm excitation and emission slit widths, and a 0.1 s integration rate. A Quantaurus-QY spectrometer (Hamamatsu, model C11374) was used to determine absolute fluorescence quantum yields (ΦF) (Suzuki et al., Phys. Chem. Chem. Phys. 112009, 9850-9860). This instrument uses an integrating sphere to measure photons absorbed and emitted by a sample. Measurements were carried out at a concentration of 250 nM in either MeOH or PBS (50 mM, pH 7.4) and self-absorption corrections were performed using the instrument software. Reported values are averages (n≥5). Data analysis and curve fitting were performed using MS Excel 2011 and GraphPad Prism 7. Light intensity measurements were performed with a Thorlabs PM200 optical power and energy meter fitted with an S120VC standard Si photodiode power sensor (200-1100 nm, 50 nW-50 mW). See JOC Standard Abbreviations and Acronyms for abbreviations (http://pubs.acs.org/paragonplus/submission/joceah/-joceah_abbreviations.pdf).
# [4] = Fluorescence lifetime; settings: for solvent viscosity sensitivity of fluorescence lifetime and quantum yield: solvents of Table 2
# [5] = TCEP addition, formation of phosphine-polyene adducts; settings: 10 μM, TCEP in Tris (0.20 M, pH 9.0), absorbance at λmax
# Description: FIG. 9 is a graph showing the effect of TCEP addition on absorbance of compound 7 and AF647 (10 μM each). Absorbance at λmax (compound 7 at 670 nm and AF647 at 650 nm) as a function of TCEP concentration in Tris (0.20 M, pH 9.0).
# The formation of phosphine and thiol adducts in chemical and single molecule imaging contexts was also evaluated. TCEP (tris(2-carboxyethyl)phosphine) was add to compound 7 and AF647 (Alexa Fluor 647, available through ThermoFisher Scientific) (10 μM each) (Vaughan et al., JACS 2013, 135(4):1197-1200). Absorbance at λmax (compound 7 at 670 nm and AF647 at 650 nm) as a function of TCEP concentration in Tris (0.20 M, pH 9.0). Compound 7 (circles) appeared resistant to the formation of polyene-heteroatom adducts (FIG. 9).
compound,measurement,setting,value
CC1(C)C2=C3C=C4C=C5C6=[N+](CC[C@H]5O[C@H]4C[C@H]3CCN2c2ccccc21)c1ccccc1C6(C)C [Compound 4],temperature sensitivity of fluorescence emission,[1],insensitive to temperature
same,ΦF,"[2]; Acetone, calculated by relative method",0.90
same,ΦF,"[2]; EtOH, calculated by relative method",0.68
same,ΦF,"[2]; Glycerol, calculated by relative method",0.66
same,ΦF,"[2]; MeCN, calculated by relative method",0.92
same,λem,[2]; in methanol,677 nm
same,ΦF,"[2]; in methanol (MeOH), integrating sphere",0.69
same,ε,[3]; in methanol,"206,000 M^−1cm^−1"
same,λmax,[3]; in methanol,662 nm
same,shift in λmax,[3],approximately 25 nm
same,τ,[4]; Acetone,2.9 ns
same,τ,[4]; EtOH,2.5 ns
same,τ,[4]; Glycerol,2.3 ns
same,τ,[4]; MeCN,2.8 ns
same,τ,[4]; in methanol (MeOH),2.5 ns
same,solvent viscosity sensitivity of fluorescence lifetime and quantum yield,[4],largely solvent viscosity insensitive
CC1(C)C2=C3C=C4C=C5C6=[N+](CC[C@H]5O[C@H]4C[C@H]3CCN2c2ccc(S(=O)(=O)[O-])cc21)c1ccc(C(=O)O)cc1C6(C)C [Compound 7],λem,[2]; in pH 7.4 PBS,683^b nm
same,λmax,[3]; in pH 7.4 PBS,670^b nm
same,ε,[3]; no solvent footnote on this cell (PBS or methanol),"190,000 M^−1cm^−1"
same,shift in λmax,[3],approximately 25 nm
same,τ,[4]; in H2O,1.7^c ns
same,solvent viscosity sensitivity of fluorescence lifetime and quantum yield,[4],largely solvent viscosity insensitive
same,formation of polyene-heteroatom adducts,[5],resistant
